Series [1] can be described thus: Effect of varying oxygen concentrations on efficacy of 1000 ppm NO exposure. The class given is cell-based. From the text: Prior art devices for delivering NO to treat wounds have required a closed environment. […] The oxygen may be environmental oxygen or may be delivered via an oxygen generating component within the dressing or apparatus.
The effect of various oxygen concentration levels on the efficacy of 1000 ppm treatment of NO was studied.

The subject of a further series is bacterial burden. Conditions: "It has been shown", no test described; cited from earlier work.
The conditions of series [2]: humans, delivery to an infection site; cited from earlier work.

Consider `[N]=O` [NO, Nitric oxide], for which the CFU/mL in series [1] (0% Oxygen, 2 hour) is 100,000 CFU/mL; in series [1] (0% Oxygen, 4 hour), 100,000 CFU/mL; in series [1] (14.5% Oxygen, 2 hour) it was 2730 CFU/mL; in series [1] (14.5% Oxygen, 3 hour), 78 CFU/mL; in series [1] (14.5% Oxygen, 4 hour), 0 CFU/mL; in series [1] (21% Oxygen, 1 hour) it was 100,000 CFU/mL. Moreover, the CFU/mL is given as 10,000 CFU/mL in series [1] (21% Oxygen, 2 hour); 0 CFU/mL in series [1] (21% Oxygen, 3 hour); 0 CFU/mL in series [1] (21% Oxygen, 4 hour). For the same compound, the “reduction of the bacterial burden” value in the series on bacterial burden is listed as 5-6 log10 cfu/mL. The side-effects result in series [2] was “does not have significant side-effects”.
